Assay [1] deals with T1, Type-1 angiotensin II receptor (Homo sapiens, UniProt P30556).
T1 sequence (P30556 whole entry): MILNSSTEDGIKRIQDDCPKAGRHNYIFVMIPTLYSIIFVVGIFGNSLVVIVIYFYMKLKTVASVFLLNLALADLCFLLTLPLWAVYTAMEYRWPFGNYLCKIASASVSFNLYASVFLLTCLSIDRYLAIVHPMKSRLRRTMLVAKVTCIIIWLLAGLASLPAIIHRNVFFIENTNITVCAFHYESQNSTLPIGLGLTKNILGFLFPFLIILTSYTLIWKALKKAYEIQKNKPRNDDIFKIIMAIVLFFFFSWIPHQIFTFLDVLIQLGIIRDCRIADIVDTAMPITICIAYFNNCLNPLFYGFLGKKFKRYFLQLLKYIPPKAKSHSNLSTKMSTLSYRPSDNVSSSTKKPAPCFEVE
The assay can be described thus: Tested for binding affinity to Angiotensin II receptor, type 1.

Assay [2] has as its system Rattus norvegicus. In words: Tested for the dose that produced a 50% inhibition of the pressor response to AII in conscious normotensive rats administered intravenously. The format is functional. Particulars: iv, read-out: ID50 (the source's name).
For assay [3], the species on record is Oryctolagus cuniculus. In words: Tested for inhibition of AII-induced vasoconstriction of rabbit aorta. The class given is functional.
The test system of assay [4] is Rattus norvegicus. The assay can be described thus: Tested for the dose that produced a 50% inhibition of the pressor response to AII in conscious normotensive rats administered intraduodenally. The class given is functional. Particulars: intraduodenal, read-out: ID50 (the source's name).
The target in assay [5] is T2, Type-1 angiotensin II receptor B (Rattus norvegicus, UniProt P29089).
T2 sequence (P29089 whole entry): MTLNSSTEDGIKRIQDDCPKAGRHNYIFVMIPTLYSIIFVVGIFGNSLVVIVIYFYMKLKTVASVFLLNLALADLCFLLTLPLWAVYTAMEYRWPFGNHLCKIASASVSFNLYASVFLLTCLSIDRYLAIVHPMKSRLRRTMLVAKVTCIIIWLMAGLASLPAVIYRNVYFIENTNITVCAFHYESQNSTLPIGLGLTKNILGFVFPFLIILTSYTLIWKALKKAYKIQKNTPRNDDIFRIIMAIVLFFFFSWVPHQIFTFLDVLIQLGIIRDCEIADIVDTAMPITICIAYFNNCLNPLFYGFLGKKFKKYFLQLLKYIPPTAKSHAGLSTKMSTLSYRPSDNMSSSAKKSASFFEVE
The assay can be described thus: Tested for inhibition of [125I]- AII specific binding to rat mesenteric arteries, expressed as IC50.

For assay [6], the system named is Rattus norvegicus. In words: Tested for time for the pressor response to AII to recover 50% of its initial effect after intraduodenal dosing of 10 mg/kg. The format is functional, organism-based. Further details: dose 10 mg/kg.
In assay [7] the test system is Rattus norvegicus. In words: Tested for time for the pressor response to AII to recover 50% of its initial effect after intraduodenal dosing of 30 mg/kg. The class given is functional, organism-based. Also noted: dose 30 mg/kg.
The species named for assay [8] is Rattus norvegicus. In words: Time required for effect of drug after washout of rat adrenal cortical membranes. The format is functional.
Assay [9] concerns Canis familiaris. The assay can be described thus: Tested for lowering of mean arterial blood pressure at a dose of 10 mg/kg id, in 2-kidney, 1-clip Goldblatt renin dependent hypertensive dog for more than 12 hours. The format is functional, Canis lupus familiaris.
In assay [10] the target is T1, Type-1 angiotensin II receptor. The assay can be described thus: Tested for Angiotensin II receptor, type 1 affinity in the presence of 0.25% bovine serum albumin (BSA).
Assay [11] has as its system Canis familiaris. In words: Tested for po dose required to inhibit the pressor effect up to 14 hr in Angiotensin I infused dog. The format is functional, Canis lupus familiaris.
Assay [12] concerns the target T1, Type-1 angiotensin II receptor. The assay can be described thus: Tested for Angiotensin II receptor, type 1 affinity in the absence of bovine serum albumin (BSA).
Assay [13] shares this target. In words: Tested for Angiotensin II receptor, type 1 affinity in the presence of 0.25% BSA.
Assay [14] deals with Canis familiaris. The assay can be described thus: Tested for po dose required to inhibit the pressor effect up to 20 hr in Angiotensin I infused dog. The format is functional, Canis lupus familiaris.
For assay [15], the species on record is Oryctolagus cuniculus. The assay can be described thus: Tested for inhibition of AII-induced vasoconstriction of rabbit aorta measured at 30% inhibition. The class given is functional.
Assay [16] addresses T1, Type-1 angiotensin II receptor. In words: Tested for Angiotensin II receptor, type 1 affinity in the absence of BSA.

Data on 8 compounds can be found in ChEMBL document CHEMBL1152092, “A potent long-acting imidazole-5-acrylic acid angiotensin II AT-1 receptor antagonist” (Bioorg Med Chem Lett, 1994).

For `CCCCc1ncc(/C=C(\Cc2cccs2)C(=O)O)n1Cc1ccccc1Cl`, the IC50 in assay [1] amounted to 4530 nM.

As to `CCCCc1ncc(/C=C(\Cc2cccs2)C(=O)O)n1Cc1ccc(C(=O)O)cc1Cl`, the ED50 in the assay with Rattus norvegicus [2] came out at 0.06 mg/kg; in the assay with Rattus norvegicus [4] it was 2.4 mg/kg. The compound further registered a Kb in the assay filed under Oryctolagus cuniculus [3] of 0.02 nM. This compound also showed an IC50 in assay [5] of 1.45 nM. In addition, in the assay on Rattus norvegicus [6], the T1/2 turned out to be 2.5 h.

With `CCCCc1ncc(/C=C(\Cc2cccs2)C(=O)O)n1Cc1ccc(C(=O)O)c(Cl)c1Cl`, the ED50 with Rattus norvegicus [2] was found to be 0.04 mg/kg; with Rattus norvegicus [4], 5.4 mg/kg. The compound also yielded a Kb in the assay listed under Oryctolagus cuniculus [3] of 0.18 nM. Further, the IC50 in assay [5] was found to be 0.16 nM. In the assay with Rattus norvegicus [6], this compound returned a T1/2 of 1.6 h.

With `CCCCc1ncc(/C=C(\Cc2cccs2)C(=O)O)n1Cc1ccc(C(=O)O)c(Cl)c1`, the ED50 with Rattus norvegicus [2] worked out at 0.12 mg/kg; with Rattus norvegicus [4], 16 mg/kg. Further, the Kb in the assay filed under Oryctolagus cuniculus [3] amounted to 0.13 nM. The IC50 in [5] stood at 1.04 nM. This compound returned a T1/2 in the assay on Rattus norvegicus [7] of 1.8 h.

Consider `CCCCc1ncc(/C=C(\Cc2cccs2)C(=O)O)n1Cc1cc(Cl)c(C(=O)O)cc1Cl`, for which the ED50 in the assay with Rattus norvegicus [2] was determined as 0.68 mg/kg. The compound further registered a Kb in the assay listed under Oryctolagus cuniculus [3] of 1.58 nM. The IC50 in assay [5] turned out to be 35.4 nM.

For the compound `CCCCc1ncc(/C=C(\Cc2cccs2)C(=O)O)n1Cc1ccc(C(=O)O)cc1` [EPROSARTAN], the TIME in the assay filed under Rattus norvegicus [8] came to 0.5 h. The compound also had a Mean blood pressure in the assay with Canis familiaris [9] of 35 mmHg. In addition, the IC50 turned out to be 7.3 nM in assay [10] and 2 nM in assay [12]. Further, the ED50 in the assay with Rattus norvegicus [2] came to 0.08 mg/kg; in the assay with Rattus norvegicus [4] it was 5.5 mg/kg. Further, the Kb in the assay listed under Oryctolagus cuniculus [3] is 0.21 nM. In the assay on Canis familiaris [11], the Dose is 10 mg/kg. In the assay on Rattus norvegicus [6], this compound came in with a T1/2 of 1.42 h.

Compound `CCCCc1ncc(/C=C(\Cc2cccs2)C(=O)O)n1Cc1ccc(C(=O)O)c2ccccc12` displayed a TIME in the assay listed under Rattus norvegicus [8] of 3 h. Besides, the Mean blood pressure in the assay with Canis familiaris [9] is 35 mmHg. Further, the IC50 turned out to be 31 nM in assay [13], 11.8 nM in assay [5] and 1.2 nM in assay [16]. Further, the ED50 came out at 0.05 mg/kg in the assay with Rattus norvegicus [2] and 3.8 mg/kg in the assay with Rattus norvegicus [4]. In addition, the Dose in the assay with Canis familiaris [14] worked out at 10 mg/kg. The Kb in the assay filed under Oryctolagus cuniculus [15] came out at 0.059 nM. For the same compound, in the assay on Rattus norvegicus [6], the T1/2 was 2.42 h.

`CCCCc1ncc(/C=C(\Cc2cccs2)C(=O)O)n1Cc1ccccc1` had an IC50 in [1] of 440 nM.

The IC50 is the point on the concentration scale where inhibition reaches its midpoint.
